Measured values: US7271171B2, “Adenosine A3 receptor modulators” (King Pharmaceuticals Research and Development, Inc., priority 1998, dated 2007)
Structures can show the parent of a compound that is named as a salt.

Assays:
rA2A adenosine receptor = biological target: T1, rA2A adenosine receptor (Rattus norvegicus, UniProt P30543); assay: Rat A2A adenosine receptor binding assay, [3H]SCH58261 displacement, rat striatum membranes; details: rat striatum membranes, [3H]SCH58261; read-out: rA2A (Ki)
T1 construct: membranes of rat striatum (80-100 μmg of protein/assay); from tissue; host or cells: striatum of male Wistar rats
Method: (§3) Male Wistar rats (200-250 g) were decapitated and the whole brain and striatum dissected on ice. […] The homogenate was centrifuged at 48,000 for 10 min, and the pellet was resuspended in the same buffer containing 2 IU/mL adenosine deaminase. After 30 min incubation at 37° C., the membranes were centrifuged and pellets were stored at −80° C. Prior to freezing, an aliquot of homogenate was removed for protein assay with bovine albumin as reference standard. Binding assays were performed on rat brain and striatum membranes respectively, in the presence of 10 mM MgCl2 at 25° C.
(§4) Separation of bound from free radio ligand was performed by rapid filtration through Whatman GF/B filters which were washed three times with ice-cold buffer. Filter bound radioactivity was measured by scintillation spectrometry after addition of 5 mL of Aquassure. […] Ki values were calculated from the Cheng-Prusoff equation. All binding data were analyzed using the nonlinear regression curve-fitting computer program LIGAND.

rA1 adenosine receptor = biological target: T2, rA1 adenosine receptor (Rattus norvegicus, UniProt P25099); assay: Rat A1 adenosine receptor binding assay, [3H]CHA displacement, rat brain membranes
T2 construct: membranes of rat brain (150-200 μg- of protein/assay); from tissue; host or cells: whole brain of male Wistar rats
T2 sequence (P25099 1-326): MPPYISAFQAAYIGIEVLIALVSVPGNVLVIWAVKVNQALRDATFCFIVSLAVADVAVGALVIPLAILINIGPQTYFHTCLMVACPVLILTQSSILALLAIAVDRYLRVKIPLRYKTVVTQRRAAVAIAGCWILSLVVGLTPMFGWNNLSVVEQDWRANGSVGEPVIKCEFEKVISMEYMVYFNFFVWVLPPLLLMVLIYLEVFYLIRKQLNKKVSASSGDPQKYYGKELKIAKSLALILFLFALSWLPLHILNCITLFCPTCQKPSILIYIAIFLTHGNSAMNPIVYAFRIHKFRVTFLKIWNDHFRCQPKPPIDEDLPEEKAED
Method: as §3, §4

[1] = biological target: T3, human recombinant A3 adenosine receptor (Homo sapiens, UniProt P0DMS8); assay: Human cloned A3 adenosine receptor binding assay, [125I]AB-MECA, HEK-293 membranes; design: USA; host or cells: HEK-293; details: for Ki: HEK-293 membranes, [125I]AB-MECA, read-out: hA3 (Ki); for rA1/hA3 / rA2A/hA3: selectivity ratio of Ki values
T3 sequence (P0DMS8 1-318): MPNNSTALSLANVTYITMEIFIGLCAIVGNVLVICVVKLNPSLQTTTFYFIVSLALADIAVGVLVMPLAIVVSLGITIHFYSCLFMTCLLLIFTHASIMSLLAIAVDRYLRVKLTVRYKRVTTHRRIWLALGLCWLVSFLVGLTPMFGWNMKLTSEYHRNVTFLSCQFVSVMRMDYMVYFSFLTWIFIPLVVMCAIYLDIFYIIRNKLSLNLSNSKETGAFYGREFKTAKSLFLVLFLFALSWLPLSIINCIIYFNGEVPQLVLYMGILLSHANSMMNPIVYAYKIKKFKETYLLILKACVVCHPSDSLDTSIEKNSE

[2] = biological target: T4, human recombinant A2A adenosine receptors (Homo sapiens, UniProt P29274); assay: Human cloned A2A receptor binding, [3H]-SCH58261, CHO cells; details: read-out: hA2A (Ki)
T4 construct: expressed in transfected cells; host or cells: CHO
Method: (§1) The expression of the human A1, A2A, A2B and A3 receptors in CHO cells has been previously described (Klotz et al., 1998). The cells are grown adherently and maintained in Dulbecco's modified Eagle's medium with nutrient mixture F12 without nucleosides at 37 ° C. in 5% CO2/95% air. Cells are split two or three times weekly and then the culture medium is removed for membrane preparations. The cells are washed with phosphate-buffered saline and scraped off flasks in ice cold hypotonic buffer (5 mM Tris HCl, 2 mM EDTA, pH 7.4). The cell suspension is homogenized with Polytron and the homogenate is centrifuged for 30 min. at 48,000 g. The membrane pellet is re-suspended in 50 mM Tris HCl buffer at pH 7.4 for A1 adenosine receptors, in 50 mM Tris HCl, 10 mM MgCl2 at pH 7.4 for A2A adenosine receptors, in 50 mM Tris HCl, 10 mM MgCl2, 1 mM EDTA at pH 7.4 for A3 adenosine receptors and are utilized for binding and adenylate cyclase assays.
(§2) Displacement experiments are performed for 120 min. at 25° C. in 0.20 mL of buffer containing 1 nM [^3H]-DPCPX, 20 μL of diluted membranes (50 μg of protein/assay) and at least 6-8 different concentrations of examined compounds. Non-specific binding is determined in the presence of 10 μM of CHA and this is always 10% of the total binding. Binding of [^3H]-SCH58261 to CHO cells transfected with the human recombinant A2A adenosine receptors (50 μg of protein/assay) was performed according to Varani et al. (Varani, K; Cacciari, B.; Baraldi, P. G.; Dionisotti, S.; Ongini, E.; Borea, P. A., “Binding affinity of adenosine receptor agonists and antagonists at human cloned […] adenosine receptors,” Life Sci., 63, 81-87, 1998). In competition studies, at least 6-8 different concentrations of compounds are used and non-specific binding is determined in the presence of 50 μM NECA for an incubation time of 60 min. at 25° C.

[3] = biological target: T5, human recombinant A1 adenosine receptor (Homo sapiens, UniProt P30542); assay: Human cloned A1 receptor binding, [3H]-DPCPX, CHO cells; details: read-out: hA1 (Ki)
T5 construct: expressed in transfected cells; host or cells: CHO
T5 sequence (P30542 1-326): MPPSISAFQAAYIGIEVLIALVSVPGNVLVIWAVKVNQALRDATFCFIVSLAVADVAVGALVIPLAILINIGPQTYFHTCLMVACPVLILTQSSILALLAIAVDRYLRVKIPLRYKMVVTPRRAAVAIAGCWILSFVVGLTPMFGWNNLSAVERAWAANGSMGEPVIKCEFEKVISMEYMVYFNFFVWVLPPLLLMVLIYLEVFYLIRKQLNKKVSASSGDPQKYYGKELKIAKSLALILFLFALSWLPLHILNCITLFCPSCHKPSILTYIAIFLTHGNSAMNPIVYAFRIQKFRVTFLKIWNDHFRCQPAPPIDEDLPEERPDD
Method: as §1
Binding of [^3H]-DPCPX to CHO cells transfected with the human recombinant A1 adenosine receptor is performed according to the method previously described by Klotz and coworkers (Klotz, K. N.; Cristalli, G.; Grifantini, M.; Vittori, S.; Lohse, M. J., “Photoaffinity labeling of A1 adenosine receptors,” J. Biol. Chem., 260, 14659-14664, 1985).
as §2

[4] = biological target: T6, human recombinant A2B adenosine receptors (Homo sapiens, UniProt P29275); assay: Human cloned A2B receptor binding, [3H]-DPCPX, HEK-293 cells; details: read-out: hA2B (Ki)
T6 construct: host or cells: HEK-293
T6 sequence (P29275 1-332): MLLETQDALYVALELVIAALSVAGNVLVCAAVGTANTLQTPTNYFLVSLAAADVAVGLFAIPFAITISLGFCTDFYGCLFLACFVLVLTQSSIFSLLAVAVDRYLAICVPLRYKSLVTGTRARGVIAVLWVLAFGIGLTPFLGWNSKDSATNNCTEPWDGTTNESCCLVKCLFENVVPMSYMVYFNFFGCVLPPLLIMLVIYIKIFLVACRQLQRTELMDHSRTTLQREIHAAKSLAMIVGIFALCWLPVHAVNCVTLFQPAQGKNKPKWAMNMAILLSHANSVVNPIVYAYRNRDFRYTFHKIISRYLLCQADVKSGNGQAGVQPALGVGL
Method: Binding of [^3H]-DPCPX to HEK-293 cells (Receptor Biology, Inc., Beltsville, Md.) transfected with the human recombinant A2B adenosine receptors is performed essentially to the method described by Varani and coworkers (Mol. Pharmacol.). In particular, assays are carried out for 60 min. at 25° C. in 0.1 mL of 50 mM Tris HCl Buffer, 10 mM MgCl2, 1 mM EDTA, 0.1 mM benzamidine pH 7.4, 2 IU/ml adenosine deaminase containing 40 nM [^3H]-DPCPX, diluted membranes (20 µg of protein/assay) and at least 6-8 different concentration of tested compounds. Non-specific binding is determined in the presence of 100 μM of NECA and is always 30% of the total binding.

[5] = biological target: T3, human recombinant A3 adenosine receptor; assay: Human cloned A3 receptor binding, [3H] MRE3008-F20, CHO cells; design: expressed in transfected cells; host or cells: CHO; details: for Ki: CHO cells, [3H] MRE3008-F20, read-out: hA3 (Ki); for hA1/hA3 / hA2A/hA3 / hA2B/hA3: selectivity ratio of Ki values
Method: The cells are grown adherently and maintained in Dulbecco's modified Eagle's medium with nutrient mixture F12 without nucleosides at 37 ° […] Cells are split two or three times weekly and then the culture medium is removed for membrane preparations. The cells are washed with phosphate-buffered saline and scraped off flasks in ice cold hypotonic buffer (5 mM Tris HCl, 2 mM EDTA, pH 7.4). The cell suspension is homogenized with Polytron and the homogenate is centrifuged for 30 min. at 48,000 g. The membrane pellet is re-suspended in 50 mM Tris HCl buffer at pH 7.4 for A1 adenosine receptors, in 50 mM Tris HCl, 10 mM MgCl2 at pH 7.4 for A2A adenosine receptors, in 50 mM Tris HCl, 10 mM MgCl2, 1 mM EDTA at pH 7.4 for A3 adenosine receptors and are utilized for binding and adenylate cyclase assays.

T4 sequence (P29274 whole entry): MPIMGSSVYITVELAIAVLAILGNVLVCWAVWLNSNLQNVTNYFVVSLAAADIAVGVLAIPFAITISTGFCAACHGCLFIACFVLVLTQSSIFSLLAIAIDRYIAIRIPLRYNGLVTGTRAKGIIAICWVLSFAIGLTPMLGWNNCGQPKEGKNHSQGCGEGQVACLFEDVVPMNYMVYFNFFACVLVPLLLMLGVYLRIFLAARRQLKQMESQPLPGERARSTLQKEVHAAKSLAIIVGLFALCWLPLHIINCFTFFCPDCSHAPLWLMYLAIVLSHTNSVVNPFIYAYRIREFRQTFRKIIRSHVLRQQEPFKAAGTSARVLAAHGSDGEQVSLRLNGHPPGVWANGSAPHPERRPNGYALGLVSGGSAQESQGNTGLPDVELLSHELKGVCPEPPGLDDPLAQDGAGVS
T1 sequence (P30543 whole entry): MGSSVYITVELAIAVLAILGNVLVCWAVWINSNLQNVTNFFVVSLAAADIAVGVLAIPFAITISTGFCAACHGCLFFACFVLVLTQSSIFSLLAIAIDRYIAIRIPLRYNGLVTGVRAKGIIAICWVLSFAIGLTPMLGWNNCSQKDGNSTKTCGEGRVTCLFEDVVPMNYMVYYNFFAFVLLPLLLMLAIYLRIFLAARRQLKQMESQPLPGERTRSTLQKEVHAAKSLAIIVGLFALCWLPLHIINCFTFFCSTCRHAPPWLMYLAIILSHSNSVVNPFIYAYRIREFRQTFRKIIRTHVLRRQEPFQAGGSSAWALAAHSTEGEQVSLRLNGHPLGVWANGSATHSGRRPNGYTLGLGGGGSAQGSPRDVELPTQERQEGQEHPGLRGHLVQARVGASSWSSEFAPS

Structure (SMILES)	Ki (rA2A adenosine receptor)	Ki (rA1 adenosine receptor)	Ki [1]	rA1/hA3 [1]	rA2A/hA3 [1]	Ki [2]	Ki [3]	Ki [4]	Ki [5]	hA1/hA3 [5]	hA2A/hA3 [5]	hA2B/hA3 [5]
O=C(Nc1cccc(Cl)c1)Nc1nc2nn(CCc3ccccc3)cc2c2nc(-c3ccco3)nn12 [Compound 54, 5-[[(3-Chlorophenyl)amino]carbonyl]amino-8-(2-(phenyl)ethyl)-2-(2-furyl)-pyrazolo[4,3-e]1,2,4-triazolo[1,5-c]pyrimidine]	1700 nM	1050 nM	13.3 nM	79	128							
COc1ccc(NC(=O)Nc2nc3nn(CCc4ccccc4)cc3c3nc(-c4ccco4)nn23)cc1 [Compound 55, 5-[[(4-Methoxyphenyl)amino]carbonyl]amino-8-(2-(phenyl)ethyl)-2-(2-furyl)-pyrazolo[4,3-e]1,2,4-triazolo[1,5-c]pyrimidine]	1400 nM	1280 nM	1.47 nM	872	951							
O=C(Nc1cccc(Cl)c1)Nc1nc2nn(CCCc3ccccc3)cc2c2nc(-c3ccco3)nn12 [Compound 56, 5-[[(3-Chlorophenyl)amino]carbonyl]amino-8-(3-(phenyl)propyl)-2-(2-furyl)-pyrazolo[4,3-e]1,2,4-triazolo[1,5-c]pyrimidine]	3200 nM	> 10000 nM	42.6 nM	>234	75							
COc1ccc(NC(=O)Nc2nc3nn(CCCc4ccccc4)cc3c3nc(-c4ccco4)nn23)cc1 [Compound 57, 5-[[(4-Methoxyphenyl)amino]carbonyl]amino-8-(3(phenyl)propyl)-2-(2-furyl)-pyrazolo[4,3-e]1,2,4-triazolo[1,5-c]pyrimidine]	> 10000 nM	1510 nM	19.8 nM	76.4	>504							
O=C(Cc1ccccc1)Nc1nc2nn(CCCc3ccccc3)cc2c2nc(-c3ccco3)nn12 [Compound 59, 5-[(Benzyl)carbonyl]amino-8-(3-(phenyl)propyl)-2-(2-furyl)-pyrazolo[4,3-e]1,2,4-triazolo[1,5-c]pyrimidine]	400 nM	345 nM	121 nM	2.8	3.3							
CCN(CC)c1ccc(NC(=O)Nc2nc3nn(C)cc3c3nc(-c4ccco4)nn23)cc1 [Compound 101, N-[4-(diethylamino)phenyl]-N′-[2-(2-furyl)-8-methyl-8H -pyrazolo[4,3-e][1,2,4]triazolo[1,5-c]pyrimidin-5-yl]urea]						523 nM	580 nM	350 nM				
CCN(CC)c1ccc(NC(=O)Nc2nc3nn(C)cc3c3nc(-c4ccco4)nn23)cc1 [Compound 102, N-[8-methyl-2-(2-furyl)-8H-pyrazolo[4,3-e][1,2,4]triazolo[1,5-c]pyrimidin-5-yl]-N′-[4-(diethylamino)phenyl]urea hydrochloride]						593 nM	680 nM	276 nM				
CN(C)c1ccc(NC(=O)Nc2nc3nn(C)cc3c3nc(-c4ccco4)nn23)cc1 [Compound 103, N-[8-methyl-2-(2-furyl)-8H-pyrazolo[4,3-e][1,2,4]triazolo[1,5-c]pyrimidin-5-yl]-N′-[4-(dimethylamino)phenyl]urea hydrochloride]						> 10000 nM	> 10000 nM	609 nM				
Cn1cc2c(nc(NC(=O)Nc3ccc(S(=O)(=O)N4CCOCC4)cc3)n3nc(-c4ccco4)nc23)n1 [Compound 104]						1400 nM	726 nM	> 10000 nM	2.47 nM	294	566	4050
CN1CCN(S(=O)(=O)c2ccc(NC(=O)Nc3nc4nn(C)cc4c4nc(-c5ccco5)nn34)cc2)CC1 [Compound 105, N-[2-(2-furyl)-8-methyl-8H-pyrazolo[4,3-e][1,2,4]triazolo[1,5-c]pyrimidin-5-yl]-N′{-4-[(4-methylpiperazin-1-yl)sulfonyl]-phenyl}urea]						> 1000 nM	> 1000 nM	> 1000 nM	29 nM	34.5	34.5	34.5
CCCn1cc2c(nc(NC(=O)Nc3ccc(OC)cc3)n3nc(-c4ccco4)nc23)n1 [Compound 108, 5-[[(4-methoxyphenyl)amino]carbonyl]amino-8-propyl-2-(2-furyl)-pyrazolo[4, 3]-e-1 ,2,4-triazolo[1,5-c]pyrimidine]						141 nM	1200 nM					
CCn1cc2c(nc(NC(=O)Nc3ccc(OC)cc3)n3nc(-c4ccco4)nc23)n1 [Compound 109]						1040 nM	1030 nM		0.28 nM	3660	3730	
